Measured values as given in patent publication US10259810B2, “N-sulfonylated pyrazolo[3,4-b]pyridin-6-carboxamides and method of use” (AbbVie S.à.r.l., priority 2015, dated 2019).
Like-named read-outs stand apart in the source and are kept apart here.

Experiments:
Assay type in all cases: cell-based
[1] = target: T1, ΔF508-CFTR (Homo sapiens, UniProt P13569, DEL508-508); assay: CFTR cell surface levels using HRP-tagged ΔF508-CFTR expressing CFBE cells, in the presence of a co-corrector; details: HRP-tagged ΔF508-CFTR CFBE cells, in the presence of 3 μM co-corrector; for EC50: read-out: EC50
T1 construct: host or cells: CFBE41o-, doxycycline-inducible
Outline: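 Chemiluminescent read-out of surface HRP (15 min, dark) after PBS washes. Activity is normalized as 100×(sample−DMSO)/(3 μM co-corrector alone−DMSO).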

[2] = target: T1, ΔF508-CFTR; assay: CFTR cell surface levels using HRP-tagged ΔF508-CFTR expressing CFBE cells, intrinsic corrector capacity; parameters: % Activation: concentration or dose not given beside the values; details: HRP-tagged ΔF508-CFTR expressing CFBE41o- cells, compound alone (intrinsic corrector capacity), 20 hours at 33° C.; for EC50: read-out: EC50
Outline: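 Surface ΔF508-CFTR was measured as HRP chemiluminescence from an extracellular-loop-4 tag, expressed as percent activity between DMSO and a […] corrector control.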

[3] = target: T2, CFTR ΔF508 (Homo sapiens, UniProt P13569, DEL508-508); assay: Chronic TECC assay, primary bronchial epithelial cells of CF patients homozygous for CFTR ΔF508 (corrector, co-corrector and potentiator); details: chronic TECC; for % Activity at 3 μM (AUC**): test compound at 3 μM
T2 construct: bronchial epithelial cells isolated from CF patients homozygous for the CFTR ΔF508 mutation; McGill University; Asterand; University of North Carolina hAEC-CF; host or cells: primary human bronchial epithelial cells from CF patients homozygous for ΔF508, differentiated at air-liquid interface
Outline: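 Primary bronchial epithelial cells from ΔF508-homozygous CF patients on collagen IV-coated Transwells were chronically treated with test compound plus corrector and potentiator, which were re-added before recording. Ieq was derived from PD and Rt in NaCl-Ringer, pH 7.4, at 37° C, with apical amiloride and bilateral forskolin, recorded every 2 min over 20 min. Ieq increase was normalized to controls, and EC50 was taken from per-well concentrations.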

[4] = AUC = full area under the curve upon forskolin stimulation, read-out: EC50 (nM) (AUC**)
[5] = test compound at 1 μM, AUC = full area under the curve upon forskolin stimulation
[6] = AUC = full area under the curve upon forskolin stimulation

T2 sequence (P13569 with tags, fused parts or gaps DEL508-508): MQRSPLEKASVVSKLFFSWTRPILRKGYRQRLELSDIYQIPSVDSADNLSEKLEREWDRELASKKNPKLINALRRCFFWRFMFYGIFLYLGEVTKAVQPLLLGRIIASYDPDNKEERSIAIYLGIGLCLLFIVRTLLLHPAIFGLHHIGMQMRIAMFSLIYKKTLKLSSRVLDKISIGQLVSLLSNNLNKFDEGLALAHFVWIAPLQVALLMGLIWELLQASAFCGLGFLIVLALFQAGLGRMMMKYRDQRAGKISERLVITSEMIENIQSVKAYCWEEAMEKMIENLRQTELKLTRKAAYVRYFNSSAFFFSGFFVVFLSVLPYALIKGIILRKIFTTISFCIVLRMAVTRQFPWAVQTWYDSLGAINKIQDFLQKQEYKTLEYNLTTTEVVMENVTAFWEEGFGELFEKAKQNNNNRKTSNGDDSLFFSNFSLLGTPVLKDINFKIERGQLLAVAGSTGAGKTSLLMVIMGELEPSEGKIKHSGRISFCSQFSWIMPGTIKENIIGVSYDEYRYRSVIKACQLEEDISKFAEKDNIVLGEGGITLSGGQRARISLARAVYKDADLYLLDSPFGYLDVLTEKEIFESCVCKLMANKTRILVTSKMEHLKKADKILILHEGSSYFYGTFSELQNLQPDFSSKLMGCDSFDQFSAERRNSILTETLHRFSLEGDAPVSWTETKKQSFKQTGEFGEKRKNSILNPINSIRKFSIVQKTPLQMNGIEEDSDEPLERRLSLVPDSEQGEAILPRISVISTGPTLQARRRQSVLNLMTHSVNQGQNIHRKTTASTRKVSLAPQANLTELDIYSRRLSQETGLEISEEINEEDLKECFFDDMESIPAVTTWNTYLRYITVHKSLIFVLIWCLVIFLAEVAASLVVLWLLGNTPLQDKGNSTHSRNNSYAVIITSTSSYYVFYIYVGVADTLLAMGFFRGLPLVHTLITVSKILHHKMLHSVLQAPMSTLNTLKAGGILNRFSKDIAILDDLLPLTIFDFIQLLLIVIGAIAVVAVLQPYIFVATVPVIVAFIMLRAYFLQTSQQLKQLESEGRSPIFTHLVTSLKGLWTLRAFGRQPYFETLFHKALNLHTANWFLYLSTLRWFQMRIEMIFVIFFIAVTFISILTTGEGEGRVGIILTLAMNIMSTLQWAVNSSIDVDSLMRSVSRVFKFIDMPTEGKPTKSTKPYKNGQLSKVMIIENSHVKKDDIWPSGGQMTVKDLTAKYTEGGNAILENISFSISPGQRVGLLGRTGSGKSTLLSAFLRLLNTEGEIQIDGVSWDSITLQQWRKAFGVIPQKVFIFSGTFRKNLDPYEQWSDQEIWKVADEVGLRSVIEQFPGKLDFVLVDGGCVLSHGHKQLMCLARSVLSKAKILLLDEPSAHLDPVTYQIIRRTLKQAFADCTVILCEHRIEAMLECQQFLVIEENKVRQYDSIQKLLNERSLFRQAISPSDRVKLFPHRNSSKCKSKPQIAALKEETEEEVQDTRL
T1 sequence (P13569 with tags, fused parts or gaps DEL508-508): as above

Row | Structure (SMILES) | % Activation [1] [%] | EC50 [1] [nM] | % Activation [2] [%] | EC50 [2] [nM] | EC50 [3, 4] [nM] | % Activity at 1 μM (AUC**) [3, 5] [%] | % Activity at 3 μM (AUC**) [3, 6] [%] | EC50 ([3]; Ieq = calculations based on the maximum current, read-out: EC50 (nM) (Ieq*)) | % Activity at 1 μM (Ieq*) ([3]; test compound at 1 μM, Ieq = calculations based on the maximum current) [%]
1 | O=C(NS(=O)(=O)N1CCOCC1)c1cc(N2CCC(N3CCN(C4CC4)CC3)CC2)c2c(C3CCC3)nn(-c3ccccc3)c2n1 [Compound 555, 3-cyclobutyl-4-[4-(4-cyclopropylpiperazin-1-yl)piperidin-1-yl]-N-(morpholine-4-sulfonyl)-1-phenyl-1H-pyrazolo[3,4-b]pyridine-6-carboxamide] | 432.55 | 104 | 235.5 | 359 | 107 | 296.6667 |  |  | 
2 | CCOC(=O)N1CCN(C2CCN(c3cc(C(=O)NS(=O)(=O)N(C)C)nc4c3c(C3CCC3)nn4-c3ccc(F)cc3)CC2)CC1 [Compound 590, ethyl 4-(1-{3-cyclobutyl-6-[(dimethylsulfamoyl)carbamoyl]-1-(4-fluorophenyl)-1H-pyrazolo[3,4-b]pyridin-4-yl}piperidin-4-yl)piperazine-1-carboxylate] | 487.9 | 31.4 | 290.3 | 86.7 |  |  | 220.4586 |  | 
3 | COCCS(=O)(=O)NC(=O)c1cc(N2CCC(OC)CC2)c2c(C3CCC3)nn(-c3ccccc3)c2n1 [Compound 146, 3-cyclobutyl-N-(2-methoxyethanesulfonyl)-4-(4-methoxypiperidin-1-yl)-1-phenyl-1H-pyrazolo[3,4-b]pyridine-6-carboxamide] | 357.55 | 96.9 | 201.23 | 356 |  |  |  | 30 | 310
4 | CC(C)c1nn(-c2ccnc(N3CCCC3)c2)c2nc(C(=O)NS(C)(=O)=O)cc(-c3ccc(N4CCC(C#N)CC4)cc3)c12 [Compound 169, 4-[4-(4-cyanopiperidin-1-yl)phenyl]-N-(methanesulfonyl)-3-(propan-2-yl)-1-[2-(pyrrolidin-1-yl)pyridin-4-yl]-1H-pyrazolo[3,4-b]pyridine-6-carboxamide] | 519.3 | 284 | 344.25 | 426 | 2.1 | 210 |  |  | 
5 | COCCS(=O)(=O)NC(=O)c1cc(N2CCC(CCN3CCOCC3)CC2)c2c(C3CCC3)nn(-c3ccc(F)cc3)c2n1 [Compound 415, 3-cyclobutyl-1-(4-fluorophenyl)-N-(2-methoxyethanesulfonyl)-4-{4-[2-(morpholin-4-yl)ethyl]piperidin-1-yl}-1H-pyrazolo[3,4-b]pyridine-6-carboxamide] | 598 | 69.3 | 365.4 | 165 | 28.4 | 196.1812 |  |  | 
6 | COCC1CCN(c2cc(C(=O)NS(=O)(=O)N3CCC(N4CCOCC4)C3)nc3c2c(C2CCC2)nn3-c2ccc(F)cc2)CC1 (stereo not shown) [Compound 608, 3-cyclobutyl-1-(4-fluorophenyl)-4-[4-(methoxymethyl)piperidin-1-yl]-N-[3-(morpholin-4-yl)pyrrolidine-1-sulfonyl]-1H-pyrazolo[3,4-b]pyridine-6-carboxamide] | 365.7 | 54.8 | 194.67 | 104 |  |  | 442.1916 |  | 
7 | CC(C)N1CCC2CN(c3cc(C(=O)NS(=O)(=O)N(C)C)nc4c3c(C3CCC3)nn4-c3ccc(F)cc3)CCC21 (stereo not shown) [Compound 625, 3-cyclobutyl-N-(dimethylsulfamoyl)-1-(4-fluorophenyl)-4-[1-(propan-2-yl)octahydro-5H-pyrrolo[3,2-c]pyridin-5-yl]-1H-pyrazolo[3,4-b]pyridine-6-carboxamide] | 353.87 | 126 | 182.2 | 223 |  | 403.3333 |  |  | 
8 | O=C(NS(=O)(=O)C1CCOC1)c1cc(N2CCC(CN3CCOCC3)CC2)c2c(C3CCC3)nn(-c3ccc(F)cc3)c2n1 (stereo not shown) [Compound 495, 3-cyclobutyl-1-(4-fluorophenyl)-4-{4-[(morpholin-4-yl)methyl]piperidin-1-yl}-N-(oxolane-3-sulfonyl)-1H-pyrazolo[3,4-b]pyridine-6-carboxamide] | 469.08 | 66.2 | 242.05 | 217 |  |  | 262.4635 |  | 
9 | COC(C)(C)C1CCN(c2cc(C(=O)NS(C)(=O)=O)nc3c2c(C2CCC2)nn3-c2ccccc2)CC1 [Compound 294, 3-cyclobutyl-N-(methanesulfonyl)-4-[4-(2-methoxypropan-2-yl)piperidin-1-yl]-1-phenyl-1H-pyrazolo[3,4-b]pyridine-6-carboxamide] | 548.45 | 22.1 | 319.6 | 62.2 | 21 |  |  |  | 
10 | CN1CCCCC1CCOc1cc(C(=O)NS(C)(=O)=O)nc2c1c(C1CCC1)nn2-c1ccccc1 (stereo not shown) [Compound 323, 3-cyclobutyl-N-(methanesulfonyl)-4-[2-(1-methylpiperidin-2-yl)ethoxy]-1-phenyl-1H-pyrazolo[3,4-b]pyridine-6-carboxamide] | 292.85 | 372 | 144.6 | 1370 |  | 217.91 |  |  | 
11 | CN(C)S(=O)(=O)NC(=O)c1cc(N2CCC(CN3CCCC3)CC2)c2c(C3CCC3)nn(-c3ccc(F)cc3)c2n1 [Compound 589, 3-cyclobutyl-N-(dimethylsulfamoyl)-1-(4-fluorophenyl)-4-{4-[(pyrrolidin-1-yl)methyl]piperidin-1-yl}-1H-pyrazolo[3,4-b]pyridine-6-carboxamide] | 422.95 | 148 | 193.6 | 200 |  | 236.6667 |  |  | 
12 | CN(C)S(=O)(=O)NC(=O)c1cc(N2CCC3C(CCN3C3CCC3)C2)c2c(C3CCC3)nn(-c3ccc(F)cc3)c2n1 (stereo not shown) [Compound 626, 3-cyclobutyl-4-(1-cyclobutyloctahydro-5H-pyrrolo[3,2-c]pyridin-5-yl)-N-(dimethylsulfamoyl)-1-(4-fluorophenyl)-1H-pyrazolo[3,4-b]pyridine-6-carboxamide] | 418.4 | 111 | 206.6 | 151 |  |  | 387.4854 |  | 
13 | COCC1CCN(c2cc(C(=O)NS(C)(=O)=O)nc3c2c(C2CCC2)nn3-c2ccnc(C3CCOCC3)c2)CC1 [Compound 473, 3-cyclobutyl-N-(methanesulfonyl)-4-[4-(methoxymethyl)piperidin-1-yl]-1-[2-(oxan-4-yl)pyridin-4-yl]-1H-pyrazolo[3,4-b]pyridine-6-carboxamide] | 370.7 | 43.9 | 166.3 | 70.8 |  | 243.3333 |  |  | 
14 | CC(C)Oc1cc(-n2nc(C3CCC3)c3c(N4CCC(N5CCOCC5)CC4)cc(C(=O)NS(=O)(=O)N(C)C)nc32)ccn1 [Compound 529, 3-cyclobutyl-N-(dimethylsulfamoyl)-4-[4-(morpholin-4-yl)piperidin-1-yl]-1-{2-[(propan-2-yl)oxy]pyridin-4-yl}-1H-pyrazolo[3,4-b]pyridine-6-carboxamide] | 444.13 | 22.6 | 278.55 | 60.6 | 19.1 | 520 |  |  | 
15 | CN1CCN(c2ccc(-c3cc(C(=O)NS(=O)(=O)N(C)C)nc4c3c(C3CCC3)nn4C3CCCCC3)cn2)CC1 [Compound 551, 3-cyclobutyl-1-cyclohexyl-N-(dimethylsulfamoyl)-4-[6-(4-methylpiperazin-1-yl)pyridin-3-yl]-1H-pyrazolo[3,4-b]pyridine-6-carboxamide] | 403.1 | 382 | 197.8 | 763 |  | 239.0643 |  |  | 
16 | COCC1CCN(c2cc(C(=O)NS(=O)(=O)N3CCC(N4CCOCC4)CC3)nc3c2c(C2CCC2)nn3-c2ccccc2)CC1 [Compound 397, 3-cyclobutyl-4-[4-(methoxymethyl)piperidin-1-yl]-N-[4-(morpholin-4-yl)piperidine-1-sulfonyl]-1-phenyl-1H-pyrazolo[3,4-b]pyridine-6-carboxamide] | 381.8 | 49 | 234.5 | 155 |  |  | 251.7766 |  | 
